The term IC50 denotes the concentration at which inhibition is half-maximal.

The target in this test is T1, human GPR17 receptor (Homo sapiens, UniProt Q13304).
T1 construct: host or cells: HEK-293
T1 sequence (Q13304 whole entry): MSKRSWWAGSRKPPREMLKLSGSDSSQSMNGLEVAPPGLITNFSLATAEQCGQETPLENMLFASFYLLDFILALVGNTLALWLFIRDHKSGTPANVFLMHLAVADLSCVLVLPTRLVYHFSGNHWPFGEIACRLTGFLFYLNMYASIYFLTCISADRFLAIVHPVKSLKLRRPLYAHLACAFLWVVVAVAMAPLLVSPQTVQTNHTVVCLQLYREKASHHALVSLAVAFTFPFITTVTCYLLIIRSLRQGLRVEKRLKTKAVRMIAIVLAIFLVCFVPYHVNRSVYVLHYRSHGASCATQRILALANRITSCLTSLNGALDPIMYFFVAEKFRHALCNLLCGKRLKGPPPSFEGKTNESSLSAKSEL
The test is described as follows: Calcium mobilization functional assay (Fluo-8, FLIPR TETRA) in HEK-293 hGPR17 (Gα-q assay). The class given is cell-based. The settings on record: antagonism of MDL29,951 (~EC80) induced Ca2+ signal; cell line (HEK-293 hGPR17 or HEK-293 Suchi5 hGPR17) not given. In short, it runs like this: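 Fluo-8-loaded HEK-293 hGPR17 cells (60 min dye loading, room temperature) were preincubated with compound for twenty minutes, then challenged with agonist MDL29,951 at ~EC80, 500 nM. Intracellular calcium release via Gα-q was recorded as FLIPR fluorescence for a further 2 minutes; compounds tested in duplicate.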
On the technique in general: A change in cytosolic calcium serves as a functional read-out for many receptors and channels.
On to `O=S(=O)(Nc1cc(F)c(OC(F)F)cc1F)c1c[nH]cc1Cc1ccccc1` [Cpd 271, 4-benzyl-N-[4-(difluoromethoxy)-2,5-difluoro-phenyl]-1H-pyrrole-3-sulfonamide], for which the IC50 was less than 0.5 µM.
With `O=S(=O)(Nc1cc(F)c(C(F)(F)F)cc1F)c1c[nH]c(-c2cccs2)c1` [Cpd 272, N-[2,5-difluoro-4-(trifluoromethyl)phenyl]-5-(2-thienyl)-1H-pyrrole-3-sulfonamide], the IC50 is less than 0.5 µM.
Turning to `O=S(=O)(Nc1cc(F)c(C(F)(F)F)cc1F)c1c[nH]c(-c2ccsc2)c1` [Cpd 273, N-[2,5-difluoro-4-(trifluoromethyl)phenyl]-5-(3-thienyl)-1H-pyrrole-3-sulfonamide], the concentration for half-maximal inhibition (IC50) was less than 0.5 µM.
Turning to `Cc1ccc(-c2cc(S(=O)(=O)Nc3cc(F)c(C(F)(F)F)cc3F)c[nH]2)s1` [Cpd 274, N-[2,5-difluoro-4-(trifluoromethyl)phenyl]-5-(5-methyl-2-thienyl)-1H-pyrrole-3-sulfonamide], the IC50 was in the range of 0.5 to 5 µM.
The same measure for `O=S(=O)(Nc1cc(F)c(C(F)(F)F)cc1F)c1c[nH]c(-c2ccco2)c1` [Cpd 275, N-[2,5-difluoro-4-(trifluoromethyl)phenyl]-5-(2-furyl)-1H-pyrrole-3-sulfonamide]: less than 0.5 µM; for `O=S(=O)(Nc1cc(F)c(C(F)(F)F)cc1F)c1c[nH]c(-c2ccoc2)c1` [Cpd 276, N-(2,5-difluoro-4-(trifluoromethyl)phenyl)-5-(furan-3-yl)-1H-pyrrole-3-sulfonamide]: less than 0.5 µM; for `Cn1cncc1-c1cc(S(=O)(=O)Nc2cc(F)c(C(F)(F)F)cc2F)c[nH]1` [Cpd 277, N-[2,5-difluoro-4-(trifluoromethyl)phenyl]-5-(3-methylimidazol-4-yl)-1H-pyrrole-3-sulfonamide]: 0.5 to 5 µM.
As for `O=S(=O)(Nc1cc(F)c(C(F)(F)F)cc1F)c1c[nH]c(-c2ccsn2)c1` [Cpd 278, N-[2,5-difluoro-4-(trifluoromethyl)phenyl]-5-isothiazol-3-yl-1H-pyrrole-3-sulfonamide], the half-inhibitory concentration (IC50) is less than 0.5 µM.
To `Cc1cccc(-c2cc(S(=O)(=O)Nc3cc(F)c(C(F)(F)F)cc3F)c[nH]2)n1` [Cpd 279, N-[2,5-difluoro-4-(trifluoromethyl)phenyl]-5-(6-methyl-2-pyridyl)-1H-pyrrole-3-sulfonamide] belongs 0.5 to 5 µM; to `Cc1ccc(-c2cc(S(=O)(=O)Nc3cc(F)c(C(F)(F)F)cc3F)c[nH]2)nc1` [Cpd 280, N-[2,5-difluoro-4-(trifluoromethyl)phenyl]-5-(5-methyl-2-pyridyl)-1H-pyrrole-3-sulfonamide], 0.5 to 5 µM.
The same measure for `COc1cccc(-c2cc(S(=O)(=O)Nc3cc(F)c(C(F)(F)F)cc3F)c[nH]2)n1` [Cpd 281, N-[2,5-difluoro-4-(trifluoromethyl)phenyl]-5-(6-methoxy-2-pyridyl)-1H-pyrrole-3-sulfonamide]: less than 0.5 µM.
Take `O=S(=O)(Nc1cc(F)c(C(F)(F)F)cc1F)c1c[nH]c(-c2ncccc2C(F)(F)F)c1` [Cpd 282, N-[2,5-difluoro-4-(trifluoromethyl)phenyl]-5-[3-(trifluoromethyl)-2-pyridyl]-1H-pyrrole-3-sulfonamide]: the IC50 was 5 to 50 µM.
To `COc1cccc(-c2cc(S(=O)(=O)Nc3ccc(C#N)cc3F)c[nH]2)c1C` [Cpd 283, N-(4-cyano-2-fluoro-phenyl)-5-(3-methoxy-2-methyl-phenyl)-1H-pyrrole-3-sulfonamide] belongs 5 to 50 µM; to `N#Cc1ccc(NS(=O)(=O)c2c[nH]c(-c3ccc(F)c(Cl)c3)c2)c(F)c1` [Cpd 284, 5-(3-chloro-4-fluoro-phenyl)-N-(4-cyano-2-fluoro-phenyl)-1H-pyrrole-3-sulfonamide], 0.5 to 5 µM; to `Cc1ccc(F)cc1-c1cc(S(=O)(=O)Nc2ccc(C#N)cc2F)c[nH]1` [Cpd 285, N-(4-cyano-2-fluoro-phenyl)-5-(5-fluoro-2-methyl-phenyl)-1H-pyrrole-3-sulfonamide], less than 0.5 µM.
To `Cc1cc(NS(=O)(=O)c2c[nH]c(-c3ccccn3)c2)c(F)cc1C#N` [Cpd 286, N-(4-cyano-2-fluoro-5-methyl-phenyl)-5-(2-pyridyl)-1H-pyrrole-3-sulfonamide] belongs 0.5 to 5 µM.
`N#Cc1ccc(NS(=O)(=O)c2c[nH]c(-c3ccc(Cl)c(F)c3)c2)c(F)c1` [Cpd 287, 5-(4-chloro-3-fluoro-phenyl)-N-(4-cyano-2-fluoro-phenyl)-1H-pyrrole-3-sulfonamide]: the IC50 lay within 0.5 to 5 µM.
To `Cc1cc(F)cc(-c2cc(S(=O)(=O)Nc3ccc(C#N)cc3F)c[nH]2)c1` [Cpd 288, N-(4-cyano-2-fluoro-phenyl)-5-(3-fluoro-5-methyl-phenyl)-1H-pyrrole-3-sulfonamide] belongs 0.5 to 5 µM.
As for `N#Cc1ccc(NS(=O)(=O)c2c[nH]c(-c3c(F)cccc3Cl)c2)c(F)c1` [Cpd 289, 5-(2-chloro-6-fluoro-phenyl)-N-(4-cyano-2-fluoro-phenyl)-1H-pyrrole-3-sulfonamide], the concentration for half-maximal inhibition (IC50) is less than 0.5 µM.
The same measure for `COc1c(F)cccc1-c1cc(S(=O)(=O)Nc2ccc(C#N)cc2F)c[nH]1` [Cpd 290, N-(4-cyano-2-fluoro-phenyl)-5-(3-fluoro-2-methoxy-phenyl)-1H-pyrrole-3-sulfonamide]: less than 0.5 µM; for `N#Cc1ccc(NS(=O)(=O)c2c[nH]c(-c3ccc(F)c(F)c3)c2)c(F)c1` [Cpd 291, N-(4-cyano-2-fluoro-phenyl)-5-(3,4-difluorophenyl)-1H-pyrrole-3-sulfonamide]: 0.5 to 5 µM.
As for `N#Cc1ccc(NS(=O)(=O)c2c[nH]c(-c3cccc(Cl)c3Cl)c2)c(F)c1` [Cpd 292, N-(4-cyano-2-fluoro-phenyl)-5-(2,3-dichlorophenyl)-1H-pyrrole-3-sulfonamide], the IC50 was in the range of 0.5 to 5 µM.
In the case of `Cc1ccc(-c2cc(S(=O)(=O)Nc3cc(F)c(C(F)(F)F)cc3F)c[nH]2)c(F)c1` [Cpd 293, N-[2,5-difluoro-4-(trifluoromethyl)phenyl]-5-(2-fluoro-4-methyl-phenyl)-1H-pyrrole-3-sulfonamide], the half-inhibitory concentration (IC50) was in the range of 5 to 50 µM.
To `COc1ccc(-c2cc(S(=O)(=O)Nc3cc(F)c(C(F)(F)F)cc3F)c[nH]2)cc1` [Cpd 294, N-[2,5-difluoro-4-(trifluoromethyl)phenyl]-5-(4-methoxyphenyl)-1H-pyrrole-3-sulfonamide] belongs 5 to 50 µM; to `Cc1ccc(-c2cc(S(=O)(=O)Nc3cc(F)c(C(F)(F)F)cc3F)c[nH]2)cc1` [Cpd 295, N-[2,5-difluoro-4-(trifluoromethyl)phenyl]-5-(p-tolyl)-1H-pyrrole-3-sulfonamide], 5 to 50 µM.
The same measure for `Cc1ccc(Cl)cc1-c1cc(S(=O)(=O)Nc2ccc(C#N)cc2F)c[nH]1` [Cpd 296, 5-(5-chloro-2-methyl-phenyl)-N-(4-cyano-2-fluoro-phenyl)-1H-pyrrole-3-sulfonamide]: 0.5 to 5 µM.
The same measure for `O=S(=O)(Nc1cc(F)c(C(F)(F)F)cc1F)c1c[nH]c(-c2ccc(Cl)cc2)c1` [Cpd 297, 5-(4-chlorophenyl)-N-[2,5-difluoro-4-(trifluoromethyl)phenyl]-1H-pyrrole-3-sulfonamide]: 5 to 50 µM; for `COc1ccccc1-c1cc(S(=O)(=O)Nc2cc(F)c(C(F)(F)F)cc2F)c[nH]1` [Cpd 298, N-[2,5-difluoro-4-(trifluoromethyl)phenyl]-5-(2-methoxyphenyl)-1H-pyrrole-3-sulfonamide]: 0.5 to 5 µM; for `COc1cc(F)cc(-c2cc(S(=O)(=O)Nc3ccc(C#N)cc3F)c[nH]2)c1` [Cpd 299, N-(4-cyano-2-fluoro-phenyl)-5-(3-fluoro-5-methoxy-phenyl)-1H-pyrrole-3-sulfonamide]: 0.5 to 5 µM.
Consider `COc1ccc(-c2cc(S(=O)(=O)Nc3ccc(C#N)cc3F)c[nH]2)c(Cl)c1` [Cpd 300, 5-(2-chloro-4-methoxy-phenyl)-N-(4-cyano-2-fluoro-phenyl)-1H-pyrrole-3-sulfonamide], for which the half-inhibitory concentration (IC50) is 0.5 to 5 µM.
The same measure for `O=S(=O)(Nc1cc(F)c(C(F)(F)F)cc1F)c1c[nH]c(-c2cccc(F)c2F)c1` [Cpd 301, 5-(2,3-difluorophenyl)-N-[2,5-difluoro-4-(trifluoromethyl)phenyl]-1H-pyrrole-3-sulfonamide]: 0.5 to 5 µM; for `O=S(=O)(Nc1cc(F)c(C(F)(F)F)cc1F)c1c[nH]c(-c2cscn2)c1` [Cpd 302, N-[2,5-difluoro-4-(trifluoromethyl)phenyl]-5-thiazol-4-yl-1H-pyrrole-3-sulfonamide]: less than 0.5 µM.
The same measure for `Cc1ccnc(-c2cc(S(=O)(=O)Nc3cc(F)c(C(F)(F)F)cc3F)c[nH]2)c1` [Cpd 303, N-[2,5-difluoro-4-(trifluoromethyl)phenyl]-5-(4-methyl-2-pyridyl)-1H-pyrrole-3-sulfonamide]: 0.5 to 5 µM; for `COc1ccc(-c2cc(S(=O)(=O)Nc3cc(F)c(C(F)(F)F)cc3F)c[nH]2)nc1` [Cpd 304, N-[2,5-difluoro-4-(trifluoromethyl)phenyl]-5-(5-methoxy-2-pyridyl)-1H-pyrrole-3-sulfonamide]: 0.5 to 5 µM.
`COc1ccnc(-c2cc(S(=O)(=O)Nc3cc(F)c(C(F)(F)F)cc3F)c[nH]2)c1` [Cpd 305, N-[2,5-difluoro-4-(trifluoromethyl)phenyl]-5-(4-methoxy-2-pyridyl)-1H-pyrrole-3-sulfonamide]: the half-inhibitory concentration (IC50) lay within 0.5 to 5 µM.
To `Cc1cccc(Cc2c[nH]cc2S(=O)(=O)Nc2ccc(C#N)cc2F)c1` [Cpd 306, N-(4-cyano-2-fluoro-phenyl)-4-(m-tolylmethyl)-1H-pyrrole-3-sulfonamide] belongs 0.5 to 5 µM; to `N#Cc1ccc(NS(=O)(=O)c2c[nH]cc2Cc2cccc(C(F)(F)F)c2)c(F)c1` [Cpd 307, N-(4-cyano-2-fluoro-phenyl)-4-[[3-(trifluoromethyl)phenyl]methyl]-1H-pyrrole-3-sulfonamide], 0.5 to 5 µM.

The values are drawn from patent US20240299385A1 (ReWind Therapeutics NV, priority 2021, published 2024).
